Reference: patent US8952024B2, “Herbicidal pyrimidone derivatives” (E I du Pont de Nemours and Company, priority 2009, dated 2015)

Assays:
Assay in all cases: Test B pre-/postemergence plant response
Format in all cases: in vivo
Settings in all cases: Postemergence
[1] = system: Italian ryegrass (Lolium multiflorum)
From the text: (§1) Seeds of plant species selected from blackgrass (Alopecurus myosuroides), downy bromegrass (Bromus tectorum), green foxtail (Setaria viridis), Italian ryegrass (Lolium multiflorum), wheat (Triticum aestivum), wild oat (Avena fatua), deadnettle (henbit deadnettle, Lamium amplexicaule), galium (catchweed bedstraw, Galium aparine), bermudagrass (Cynodon dactylon), Surinam grass (Brachiaria decumbens), cocklebur (Xanthium strumarium), corn (Zea mays), large crabgrass (Digitaria sanguinalis), woolly cupgrass (Eriochloa villosa), giant foxtail (Setaria faberii), goosegrass (Eleusine indica), johnsongrass (Sorghum halepense), kochia (Kochia scoparia), lambsquarters (Chenopodium album), morningglory (Ipomoea coccinea), nightshade (eastern black nightshade, Solanum ptycanthum), yellow nutsedge (Cyperus esculentus), pigweed (Amaranthus retroflexus), ragweed (common ragweed, Ambrosia elatior), Russian thistle (Salsola kali), soybean (Glycine max), sunflower (common oilseed sunflower, Helianthus annuus) and velvetleaf (Abutilon theophrasti) were planted into a blend of loam soil and sand and treated preemergence with test compounds formulated in a non-phytotoxic solvent mixture which included a surfactant.
(§2) At the same time, plants selected from these crop and weed species and also winter barley (Hordeum vulgare), canarygrass (Phalaris minor), chickweed (Stellaria media) and windgrass (Apera spica-venti) were planted in pots containing Redi-Earth® planting medium (Scotts Company, 14111 Scottslawn Road, Marysville, Ohio 43041) comprising spaghnum peat moss, vermiculite, wetting agent and starter nutrients and treated with postemergence applications of some of the test chemicals formulated in the same manner. Plants ranged in height from 2 to 18 cm (1- to 4-leaf stage) for postemergence treatments.
(§3) Treated plants and controls were maintained in a greenhouse for 13 to 15 days, after which time all treated plants were visually evaluated and compared to controls. Plant response ratings, summarized in Table B, are based on a scale of 0 to 100 where 0 is no effect and 100 is complete control. A dash (-) response means no test result.

[2] = system: bermudagrass (Cynodon dactylon)
From the text: as §1, §2, §3

[3] = system: downy bromegrass (Bromus tectorum)
From the text: as §1, §2, §3

[4] = system: kochia (Kochia scoparia)
From the text: as §1, §2, §3

[5] = system: large crabgrass (Digitaria sanguinalis)
From the text: as §1, §2, §3

[6] = system: morningglory (Ipomoea coccinea)
From the text: as §1, §2, §3

[7] = system: soybean (Glycine max)
From the text: as §1, §2, §3

[8] = system: velvetleaf (Abutilon theophrasti)
From the text: as §1, §2, §3

[9] = system: wheat (Triticum aestivum)
From the text: as §1, §2, §3

[10] = system: woolly cupgrass (Eriochloa villosa)
From the text: as §1, §2, §3

[11] = system: yellow nutsedge (Cyperus esculentus)
From the text: as §1, §2, §3

[12] = 31 g ai/ha, 0 to 100 scale (0 no effect, 100 complete control)
[13] = 62 g ai/ha, scale 0 to 100 (0 no effect, 100 complete control)
[14] = 250 g ai/ha, scale 0 to 100 (0 no effect, 100 complete control), 13 to 15 days
[15] = 125 g ai/ha, scale 0 to 100 (0 no effect, 100 complete control)
[16] = 125 g ai/ha, scale 0 (no effect) to 100 (complete control), 13 to 15 days

Compound: COCCn1c(-c2cccc(F)c2)ncc(C(=O)C2=C(O)C3CCC(C3)C2=O)c1=O (stereo not drawn) [Compound 235]
- Plant response rating, Ryegrass, Italian [1, 12]: 30
- Plant response rating, Ryegrass, Italian [1, 13]: 30
- Plant response rating, Ryegrass, Italian [1, 14]: 60
- Plant response rating, Bermudagrass [2, 12]: 98
- Plant response rating, Bermudagrass [2, 13]: 98
- Plant response rating, Bermudagrass [2, 15]: 100
- Plant response rating, Bermudagrass [2, 14]: 100
- Plant response rating, Bromegrass, Downy [3, 12]: 10
- Plant response rating, Bromegrass, Downy [3, 13]: 30
- Plant response rating, Bromegrass, Downy [3, 15]: 50
- Plant response rating, Bromegrass, Downy [3, 14]: 85
- Plant response rating, Kochia [4, 12]: 98
- Plant response rating, Kochia [4, 13]: 100
- Plant response rating, Kochia [4, 15]: 100
- Plant response rating, Kochia [4, 14]: 100
- Plant response rating, Crabgrass, Large [5, 12]: 98
- Plant response rating, Crabgrass, Large [5, 13]: 98
- Plant response rating, Crabgrass, Large [5, 15]: 98
- Plant response rating, Crabgrass, Large [5, 14]: 100
- Plant response rating, Morningglory [6, 12]: 95
- Plant response rating, Morningglory [6, 13]: 98
- Plant response rating, Morningglory [6, 15]: 100
- Plant response rating, Morningglory [6, 14]: 100
- Plant response rating, Soybean [7, 12]: 98
- Plant response rating, Soybean [7, 13]: 100
- Plant response rating, Soybean [7, 14]: 100
- Plant response rating, Velvetleaf [8, 12]: 95
- Plant response rating, Velvetleaf [8, 13]: 100
- Plant response rating, Velvetleaf [8, 14]: 100
- Plant response rating, Wheat [9, 12]: 45
- Plant response rating, Wheat [9, 13]: 80
- Plant response rating, Wheat [9, 14]: 80
- Plant response rating, Cupgrass, Woolly [10, 12]: 95
- Plant response rating, Cupgrass, Woolly [10, 13]: 100
- Plant response rating, Cupgrass, Woolly [10, 15]: 100
- Plant response rating, Cupgrass, Woolly [10, 14]: 100
- Plant response rating, Nutsedge, Yellow [11, 12]: 45
- Plant response rating, Nutsedge, Yellow [11, 13]: 45
- Plant response rating, Nutsedge, Yellow [11, 15]: 55
- Plant response rating, Nutsedge, Yellow [11, 14]: 60

Compound: CCCCn1c(-c2cccc(F)c2)ncc(C(=O)C2=C(O)C3CCC(C3)C2=O)c1=O (stereo not drawn) [Compound 237]
- Plant response rating, Ryegrass, Italian [1, 12]: 50
- Plant response rating, Ryegrass, Italian [1, 13]: 50
- Plant response rating, Ryegrass, Italian [1, 16]: 60
- Plant response rating, Ryegrass, Italian [1, 14]: 60
- Plant response rating, Bermudagrass [2, 12]: 98
- Plant response rating, Bermudagrass [2, 13]: 98
- Plant response rating, Bermudagrass [2, 16]: 100
- Plant response rating, Bermudagrass [2, 14]: 100
- Plant response rating, Bromegrass, Downy [3, 12]: 30
- Plant response rating, Bromegrass, Downy [3, 13]: 45
- Plant response rating, Bromegrass, Downy [3, 16]: 90
- Plant response rating, Bromegrass, Downy [3, 14]: 95
- Plant response rating, Kochia [4, 12]: 65
- Plant response rating, Kochia [4, 13]: 80
- Plant response rating, Kochia [4, 16]: 100
- Plant response rating, Kochia [4, 14]: 100
- Plant response rating, Crabgrass, Large [5, 12]: 95
- Plant response rating, Crabgrass, Large [5, 13]: 98
- Plant response rating, Crabgrass, Large [5, 16]: 100
- Plant response rating, Crabgrass, Large [5, 14]: 100
- Plant response rating, Morningglory [6, 12]: 85
- Plant response rating, Morningglory [6, 13]: 95
- Plant response rating, Morningglory [6, 16]: 100
- Plant response rating, Morningglory [6, 14]: 100
- Plant response rating, Soybean [7, 12]: 95
- Plant response rating, Soybean [7, 13]: 100
- Plant response rating, Soybean [7, 16]: 100
- Plant response rating, Soybean [7, 14]: 100
- Plant response rating, Velvetleaf [8, 12]: 85
- Plant response rating, Velvetleaf [8, 13]: 90
- Plant response rating, Velvetleaf [8, 16]: 100
- Plant response rating, Velvetleaf [8, 14]: 100
- Plant response rating, Wheat [9, 12]: 50
- Plant response rating, Wheat [9, 13]: 70
- Plant response rating, Wheat [9, 16]: 85
- Plant response rating, Wheat [9, 14]: 85
- Plant response rating, Cupgrass, Woolly [10, 12]: 100
- Plant response rating, Cupgrass, Woolly [10, 13]: 100
- Plant response rating, Cupgrass, Woolly [10, 16]: 100
- Plant response rating, Cupgrass, Woolly [10, 14]: 100
- Plant response rating, Nutsedge, Yellow [11, 12]: 20
- Plant response rating, Nutsedge, Yellow [11, 13]: 35
- Plant response rating, Nutsedge, Yellow [11, 16]: 45
- Plant response rating, Nutsedge, Yellow [11, 14]: 45

Compound: COCCCn1c(-c2cccc(F)c2)ncc(C(=O)C2=C(O)C3CCC(C3)C2=O)c1=O (stereo not drawn) [Compound 238]
- Plant response rating, Ryegrass, Italian [1, 12]: 20
- Plant response rating, Ryegrass, Italian [1, 13]: 25
- Plant response rating, Ryegrass, Italian [1, 16]: 25
- Plant response rating, Ryegrass, Italian [1, 14]: 70
- Plant response rating, Bermudagrass [2, 12]: 95
- Plant response rating, Bermudagrass [2, 13]: 98
- Plant response rating, Bermudagrass [2, 16]: 100
- Plant response rating, Bermudagrass [2, 14]: 100
- Plant response rating, Bromegrass, Downy [3, 12]: 10
- Plant response rating, Bromegrass, Downy [3, 13]: 40
- Plant response rating, Bromegrass, Downy [3, 16]: 50
- Plant response rating, Bromegrass, Downy [3, 14]: 85
- Plant response rating, Kochia [4, 12]: 90
- Plant response rating, Kochia [4, 13]: 98
- Plant response rating, Kochia [4, 16]: 100
- Plant response rating, Kochia [4, 14]: 100
- Plant response rating, Crabgrass, Large [5, 12]: 95
- Plant response rating, Crabgrass, Large [5, 13]: 98
- Plant response rating, Crabgrass, Large [5, 16]: 98
- Plant response rating, Crabgrass, Large [5, 14]: 98
- Plant response rating, Morningglory [6, 16]: 100
- Plant response rating, Morningglory [6, 14]: 100
- Plant response rating, Soybean [7, 12]: 98
- Plant response rating, Soybean [7, 13]: 100
- Plant response rating, Soybean [7, 16]: 100
- Plant response rating, Soybean [7, 14]: 100
- Plant response rating, Velvetleaf [8, 12]: 80
- Plant response rating, Velvetleaf [8, 13]: 90
- Plant response rating, Velvetleaf [8, 16]: 100
- Plant response rating, Velvetleaf [8, 14]: 100
- Plant response rating, Wheat [9, 12]: 40
- Plant response rating, Wheat [9, 13]: 45
- Plant response rating, Wheat [9, 16]: 80
- Plant response rating, Wheat [9, 14]: 80
- Plant response rating, Cupgrass, Woolly [10, 12]: 95
- Plant response rating, Cupgrass, Woolly [10, 13]: 100
- Plant response rating, Cupgrass, Woolly [10, 16]: 100
- Plant response rating, Cupgrass, Woolly [10, 14]: 100
- Plant response rating, Nutsedge, Yellow [11, 12]: 20
- Plant response rating, Nutsedge, Yellow [11, 13]: 20
- Plant response rating, Nutsedge, Yellow [11, 16]: 20
- Plant response rating, Nutsedge, Yellow [11, 14]: 25
